Assay results published in US8614068B2, “Process for producing hepcidin” (Hellenic Pasteur Institute, priority 2007, dated 2013).
Entries after “also recorded” stand apart in the source; their conditions may differ.

Tests used:
ferroportin (FPN1) [1] = target: T1, ferroportin (FPN1) (Mus musculus, UniProt Q9JHI9); assay: Cross-linking and pull-down assay; type: binding, murine; details: RAW 264.7, 10 nM, cross-linking with DSS, Ni2-NTA pull-down, anti-ferroportin Western blot
T1 construct: endogenous in cells; host or cells: RAW 264.7 murine macrophages
T1 sequence (Q9JHI9 1-570): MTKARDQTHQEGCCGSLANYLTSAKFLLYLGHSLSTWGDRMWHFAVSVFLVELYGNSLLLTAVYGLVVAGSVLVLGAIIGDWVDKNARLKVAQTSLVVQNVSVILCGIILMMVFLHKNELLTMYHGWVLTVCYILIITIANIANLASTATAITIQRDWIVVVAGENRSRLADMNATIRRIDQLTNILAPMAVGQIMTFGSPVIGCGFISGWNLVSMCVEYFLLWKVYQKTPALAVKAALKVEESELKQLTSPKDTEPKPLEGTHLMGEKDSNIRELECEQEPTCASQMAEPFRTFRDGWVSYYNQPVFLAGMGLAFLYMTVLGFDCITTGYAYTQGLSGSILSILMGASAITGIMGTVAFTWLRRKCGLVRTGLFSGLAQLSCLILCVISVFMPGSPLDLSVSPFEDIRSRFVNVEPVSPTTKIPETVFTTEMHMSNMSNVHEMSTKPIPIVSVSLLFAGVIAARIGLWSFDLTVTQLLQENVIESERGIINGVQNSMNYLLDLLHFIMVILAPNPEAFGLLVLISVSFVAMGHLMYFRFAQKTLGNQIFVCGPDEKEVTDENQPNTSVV
Experimental: A, RAW 264.7 macrophages were treated with 11 μM and 10 μM of synthetic hepcidin-25 (having the sequence of SEQ ID NO. 2) and Hep-25His (having the sequence of SEQ ID NO. 6) for 4 h at 37° C. or with PBS as negative control. Cell lysates were subjected to 8% SDS PAGE and Western Blot with antibodies against TfR1, Ferroportin and actin as loading control. B, The signal density of ferroportin, TfR1 and actin protein bands from two independent experiments were quantified by densitometry and their intensity relative to actin was calculated. Data are expressed as mean of ratios of TfR1 or to actin levels ±S.D. for each experimental condition. *p<0.01. […] Hep25-His, negative peptide and PBS was incubated with Raw 264.7 macrophages, followed by cross-linking with DSS. Cell lysates were incubated with Ni2-NTA and eluates were analyzed by Western blot using anti-FPN1 Ab. […] HEK293-Fpn cells were induced with ponasterone for 24 h and then treated with Hep25-His or synthetic hepcidin 25 (s. Hep25) for 3 h. Fluorescence was visualized with a Leica TCS confocal microscope.
Disuccinimidyl suberate (DSS, Pierce, Rockford, Ill.) was added for 20 min at room temperature, followed by quenching with 20 mM TriseHCl pH 7.4 for 20 min. […] Bound proteins were eluted with 1 M imidazole and analyzed by Western blot using anti-FPN1 antibody as described above. […]

FPN1-GFP = target: T2, FPN1-GFP (Mus musculus, UniProt Q9JHI9); assay: FPN1-GFP internalization by confocal microscopy in HEK293-Fpn cells; type: cell-based; details: HEK293-Fpn cells induced with ponasterone 24 h, treated 3 h
T2 construct: expressed in transfected cells
T2 sequence (Q9JHI9 1-570): T1 sequence (Q9JHI9 1-570)
Experimental: A, RAW 264.7 macrophages were treated with 11 μM and 10 μM of synthetic hepcidin-25 (having the sequence of SEQ ID NO. 2) and Hep-25His (having the sequence of SEQ ID NO. 6) for 4 h at 37° C. or with PBS as negative control. Cell lysates were subjected to 8% SDS PAGE and Western Blot with antibodies against TfR1, Ferroportin and actin as loading control. B, The signal density of ferroportin, TfR1 and actin protein bands from two independent experiments were quantified by densitometry and their intensity relative to actin was calculated. Data are expressed as mean of ratios of TfR1 or to actin levels ±S.D. for each experimental condition. *p<0.01. […] Hep25-His, negative peptide and PBS was incubated with Raw 264.7 macrophages, followed by cross-linking with DSS. Cell lysates were incubated with Ni2-NTA and eluates were analyzed by Western blot using anti-FPN1 Ab. […] Fluorescence was visualized with a Leica TCS confocal microscope. […]
Furthermore, the internalization of FPN1 in the presence of Hep25-His (having the sequence of SEQ ID NO. 6) was analyzed in HEK293-Fpn cells by confocal microscopy; these cells express an FPN1-GFP fusion construct on the plasma membrane (Nemeth, E., Tuttle, M. S., Powelson, J., Vaughn, M. B., Donovan, A., Ward, D. M. Ganz, T., Kaplan, J. (2004) Science 306, 2090-3).

E. coli strain ML35 = details: at 30 μM
Experimental: Antimicrobial activity of recombinant tagged hepcidins. E. coli strain ML35 was subjected to CFU assay in order to determine the antimicrobial activity of synthetic hepcidin 25 (s. Hep25) having the sequence os SEQ ID NO. 2, Hep-25His having the sequence of SEQ ID NO. 6, Hep-25MycHis having the sequence of SEQ ID NO. 8, Hep-20MycHis having the sequence of SEQ ID NO. 7 and negative peptide having the sequence SEQ ID NO. 9 at the concentrations indicated for 2 h at 37° C. Sodium phosphate buffer was used as negative control.
Antimicrobial assay—All purified recombinant hepcidins were tested for antibacterial activity against E. coli ML35 and BL21(DE) is a CFU assay (Porter E. M., van Dam E., Valore E. V., Ganz T., Broad-spectrum antimicrobial activity of human intestinal defensin 5, Infect. Immun. 65 (1997) 2396-2401.). Bacterial cell cultures were grown to OD600=0.2 (5×10^7 cfu/ml) and resuspended to a final concentration of 10^6 cfu/ml in 20mM sodium phosphate buffer, pH7.4. Various concentrations of peptides were added to a final volume of 100 μl and after incubation for 2 h at 37° C., surviving cells were plated in triplicates to LB/agar plates.
Antimicrobial activity of recombinant hepcidins—The colony forming unit assay (E. M. Porter, E. van Dam, E. V. Valore, T. Ganz, Broad-spectrum antimicrobial activity of human intestinal defensin 5, Infect. Immun. 65 (1997) 2396-2401) was used to determine the antimicrobial activity of the purified recombinant hepcidin forms against the E. coli strain, ML35. […] Surviving microbes were counted following incubation with various concentrations of recombinant hepcidin preparations, synthetic hepcidin or negative peptide for 2 h at 37° C.

ferroportin (FPN1) [2] = target: T1, ferroportin (FPN1); assay: Western blot of ferroportin expression in macrophages; type: cell-based, murine; details: RAW 264.7, 1 μM, 4 h at 37° C.

For hepcidin-25His [Hep-25His], the “specific binding to FPN1” value (ferroportin (FPN1) [1]) was “binds specifically to FPN1; also recorded: binds specifically to FPNI”, the “specific binding to FPN1” value (ferroportin (FPN1) [1]; listed as recombinant peptide) was “can specifically bind to its receptor (ferroportin)” and the “internalization of FPN1-GFP” value (FPN1-GFP) was “promoted the internalization of FPN1-GFP; also recorded: causes the internalization of FPN1-GFP”. For the same substance, the “reduction of the number of surviving bacteria” value (E. coli strain ML35) was 1000 fold and the “reduction of FPN1 in comparison to untreated cells” value (ferroportin (FPN1) [2]) was 37%±7.
